Experiments:
[1] = molecular target: T1, human recombinant bradykinin B1 receptor (Homo sapiens, UniProt P46663); assay: Human recombinant bradykinin B1 receptor competitive radioligand binding; conditions: hB1 expressed in CHO cells, [3H]-[Des-Arg10] Kallidin radioligand; read-out: B1 binding
T1 construct: host or cells: CHO cells, clone hB1-A5
T1 sequence (P46663 1-353): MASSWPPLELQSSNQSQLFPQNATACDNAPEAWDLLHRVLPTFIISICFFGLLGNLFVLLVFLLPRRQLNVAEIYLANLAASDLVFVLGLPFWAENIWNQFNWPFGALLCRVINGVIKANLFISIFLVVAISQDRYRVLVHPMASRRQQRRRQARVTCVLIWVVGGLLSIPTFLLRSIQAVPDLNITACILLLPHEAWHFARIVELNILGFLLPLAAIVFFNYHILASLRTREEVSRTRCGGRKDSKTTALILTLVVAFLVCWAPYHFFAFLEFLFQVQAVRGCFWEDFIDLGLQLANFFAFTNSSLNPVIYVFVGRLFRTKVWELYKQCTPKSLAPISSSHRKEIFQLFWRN
How it was run: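 Membranes from CHO cells expressing hB1 (20 μg protein/tube) incubated 15 min at 25° C. with [3,4-prolyl-3,4-^3H(N)]-[Des-Arg^10] Kallidin; nonspecific binding defined with 10 μM Lys-des-Arg^9-Bradykinin. Bound label collected by filtration and counted. IC50 from ≥7-point curves in triplicate; Ki by Cheng-Prusoff.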

[2] = molecular target: T2, recombinant human B1 receptors (Homo sapiens, UniProt P46663); assay: Functional assay: antagonist potency by cytosolic calcium measurement (plate reader fluorimeter) in CHO-B1 cells, agonist LysDABK; format: cell-based; conditions: CHO-B1 cells, inhibition of LysDABK (EC80)-evoked [Ca2+]i elevation; read-out: B1 func.
T2 construct: host or cells: CHO (CHO-B1)
T2 sequence (P46663 1-353): T1 sequence (P46663 1-353)
How it was run: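 IC50 is the concentration giving half-maximal inhibition of the LysDABK (EC80) calcium response, fitted from at least three experiments. CHO cells stably expressing human B1 were dye-loaded, exposed to compound for 20-25 min, then read by fluo-4 fluorescence (ΔF/F) at 37 °C.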

| SMILES | Ki [1] [nM] | IC50 [2] [nM] |
| --- | --- | --- |
| Cc1nc(-c2cc3cc(F)ccc3n2-c2ccc(CNC(=O)C3(NC(=O)c4cncc(C(F)(F)F)c4)CC3)c(F)c2)no1 [Example 132, N-(1-{2-Fluoro-4-[5-fluoro-2-(5-methyl-[1,2,4]oxadiazol-3-yl)-indol-1-yl]-benzylcarbamoyl}-cyclopropyl)-5-trifluoromethyl-nicotinamide] | < 20 | < 20 |
| COc1cc(C(=O)NC2(C(=O)NCc3ccc(-n4c(-c5noc(C)n5)cc5cc(F)ccc54)cc3F)CC2)on1 [Example 133, 3-Methoxy-isoxazole-5-carboxylic acid (1-{2-fluoro-4-[5-fluoro-2-(5-methyl-[1,2,4]oxadiazol-3-yl)-indol-1-yl]-benzylcarbamoyl}-cyclopropyl)-amide] | < 20 | < 20 |
| Cc1nc(-c2c(Cl)c3ccccc3n2-c2ccc(CNC(=O)C3(NC(=O)c4ccno4)CC3)cc2)no1 [Example 134, Isoxazole-5-carboxylic acid (1-{4-[3-chloro-2-(5-methyl-[1,2,4]oxadiazol-3-yl)-indol-1-yl]-benzylcarbamoyl}-cyclopropyl)-amide] | < 20 | < 20 |
| Cc1cc(C(=O)NC2(C(=O)NCc3ccc(-n4c(-c5noc(C)n5)c(Cl)c5ccccc54)cc3)CC2)no1 [Example 135, 5-Methyl-isoxazole-3-carboxylic acid (1-{4-[3-chloro-2-(5-methyl-[1,2,4]oxadiazol-3-yl)-indol-1-yl]-benzylcarbamoyl}-cyclopropyl)-amide] | < 20 | 20 to 100 |
| Cc1nc(-c2c(Cl)c3ccccc3n2-c2ccc(CNC(=O)C3(NC(=O)C4CCCO4)CC3)cc2)no1 (stereo not drawn) [Example 136, Tetrahydro-furan-2-carboxylic acid (1-{4-[3-chloro-2-(5-methyl-[1,2,4]oxadiazol-3-yl)-indol-1-yl]-benzylcarbamoyl}-cyclopropyl)-amide] | 20 to 100 | 20 to 100 |
| Cc1nc(-c2c(Cl)c3ccccc3n2-c2ccc(CNC(=O)C3(NC(=O)c4ccoc4)CC3)cc2)no1 [Example 137, Furan-3-carboxylic acid (1-{4-[3-chloro-2-(5-methyl-[1,2,4]oxadiazol-3-yl)-indol-1-yl]-benzylcarbamoyl}-cyclopropyl)-amide] | < 20 | < 20 |
| Cc1nc(-c2c(Cl)c3ccccc3n2-c2ccc(CNC(=O)C3(NC(=O)C4CC4C)CC3)cc2)no1 (stereo not drawn) [Example 138, 2-Methyl-cyclopropanecarboxylic acid (1-{4-[3-chloro-2-(5-methyl-[1,2,4]oxadiazol-3-yl)-indol-1-yl]-benzylcarbamoyl}-cyclopropyl)-amide] | < 20 | 20 to 100 |
| C#CCCC(=O)NC1(C(=O)NCc2ccc(-n3c(-c4noc(C)n4)c(Cl)c4ccccc43)cc2)CC1 [Example 139, 1-Pent-4-ynoylamino-cyclopropanecarboxylic acid 4-[3-chloro-2-(5-methyl-[1,2,4]oxadiazol-3-yl)-indol-1-yl]-benzylamide] | < 20 | < 20 |
| Cc1nc(-c2c(Cl)c3ccccc3n2-c2ccc(CNC(=O)C3(NC(=O)CCC(C)C)CC3)cc2)no1 [Example 140, 1-(4-Methyl-pentanoylamino)-cyclopropanecarboxylic acid 4-[3-chloro-2-(5-methyl-[1,2,4]oxadiazol-3-yl)-indol-1-yl]-benzylamide] | < 20 | < 20 |
| Cc1nc(-c2c(Cl)c3ccccc3n2-c2ccc(CNC(=O)C3(NC(=O)c4cn[nH]c4)CC3)cc2)no1 [Example 141, 1H-Pyrazole-4-carboxylic acid (1-{4-[3-chloro-2-(5-methyl-[1,2,4]oxadiazol-3-yl)-indol-1-yl]-benzylcarbamoyl}-cyclopropyl)-amide] | < 20 | < 20 |
| Cc1nc(-c2c(Cl)c3ccccc3n2-c2ccc(CNC(=O)C3(NC(=O)C4(C#N)CC4)CC3)cc2)no1 [Example 142, 1-Cyano-cyclopropanecarboxylic acid (1-{4-[3-chloro-2-(5-methyl-[1,2,4]oxadiazol-3-yl)-indol-1-yl]-benzylcarbamoyl}-cyclopropyl)-amide] | < 20 | 20 to 100 |
| Cc1nc(-c2c(Cl)c3ccccc3n2-c2ccc(CNC(=O)C3(NC(=O)C4CCC4)CC3)cc2)no1 [Example 143, Cyclobutanecarboxylic acid (1-{4-[3-chloro-2-(5-methyl-[1,2,4]oxadiazol-3-yl)-indol-1-yl]-benzylcarbamoyl}-cyclopropyl)-amide] | < 20 | < 20 |
| Cc1nc(-c2c(Cl)c3ccccc3n2-c2ccc(CNC(=O)C3(NC(=O)C4CCCC4)CC3)cc2)no1 [Example 144, Cyclopentanecarboxylic acid (1-{4-[3-chloro-2-(5-methyl-[1,2,4]oxadiazol-3-yl)-indol-1-yl]-benzylcarbamoyl}-cyclopropyl)-amide] | 20 to 100 | 20 to 100 |
| Cc1nc(-c2c(Cl)c3ccccc3n2-c2ccc(CNC(=O)C3(NC(=O)c4ccco4)CC3)cc2)no1 [Example 145, Furan-2-carboxylic acid (1-{4-[3-chloro-2-(5-methyl-[1,2,4]oxadiazol-3-yl)-indol-1-yl]-benzylcarbamoyl}-cyclopropyl)-amide] | 20 to 100 | 20 to 100 |
| Cc1nc(-c2c(Cl)c3ccccc3n2-c2ccc(CNC(=O)C3(NC(=O)c4cccc(C#N)c4)CC3)cc2)no1 [Example 146, N-(1-{4-[3-Chloro-2-(5-methyl-[1,2,4]oxadiazol-3-yl)-indol-1-yl]-benzylcarbamoyl}-cyclopropyl)-3-cyano-benzamide] | < 20 | < 20 |
| Cc1nc(-c2c(Cl)c3ccccc3n2-c2ccc(CNC(=O)C3(NC(=O)Cc4ccsc4)CC3)cc2)no1 [Example 147, 1-(2-Thiophen-3-yl-acetylamino)-cyclopropanecarboxylic acid 4-[3-chloro-2-(5-methyl-[1,2,4]oxadiazol-3-yl)-indol-1-yl]-benzylamide] | 100 to 500 | 20 to 100 |
| Cc1nc(-c2c(Cl)c3ccccc3n2-c2ccc(CNC(=O)C3(NC(=O)c4cc(C)n(C)n4)CC3)cc2)no1 [Example 148, 1,5-Dimethyl-1H-pyrazole-3-carboxylic acid (1-{4-[3-chloro-2-(5-methyl-[1,2,4]oxadiazol-3-yl)-indol-1-yl]-benzylcarbamoyl}-cyclopropyl)-amide] | < 20 | 20 to 100 |
| Cc1nc(-c2c(Cl)c3ccccc3n2-c2ccc(CNC(=O)C3(NC(=O)c4scnc4C)CC3)cc2)no1 [Example 149, 4-Methyl-thiazole-5-carboxylic acid (1-{4-[3-chloro-2-(5-methyl-[1,2,4]oxadiazol-3-yl)-indol-1-yl]-benzylcarbamoyl}-cyclopropyl)-amide] | < 20 | 20 to 100 |
| Cc1nc(-c2c(Cl)c3ccccc3n2-c2ccc(CNC(=O)C3(NC(=O)c4sc(C)nc4C)CC3)cc2)no1 [Example 150, 2,4-Dimethyl-thiazole-5-carboxylic acid (1-{4-[3-chloro-2-(5-methyl-[1,2,4]oxadiazol-3-yl)-indol-1-yl]-benzylcarbamoyl}-cyclopropyl)-amide] | < 20 | 20 to 100 |
| CC(=O)NC(CO)C(=O)NC1(C(=O)NCc2ccc(-n3c(-c4noc(C)n4)c(Cl)c4ccccc43)cc2)CC1 (stereo not drawn) [Example 151, 1-(2-Acetylamino-3-hydroxy-propionylamino)-cyclopropanecarboxylic acid 4-[3-chloro-2-(5-methyl-[1,2,4]oxadiazol-3-yl)-indol-1-yl]-benzylamide] | 100 to 500 | 100 to 500 |
| Cc1cc(C(=O)NC2(C(=O)NCc3ccc(-n4c(-c5noc(C)n5)c(Cl)c5ccccc54)cc3)CC2)n[nH]1 [Example 152, 5-Methyl-1H-pyrazole-3-carboxylic acid (1-{4-[3-chloro-2-(5-methyl-[1,2,4]oxadiazol-3-yl)-indol-1-yl]-benzylcarbamoyl}-cyclopropyl)-amide] | < 20 | 20 to 100 |
| Cc1nc(-c2c(Cl)c3ccccc3n2-c2ccc(CNC(=O)C3(NC(=O)c4cccnc4Cl)CC3)cc2)no1 [Example 153, 2-Chloro-N-(1-{4-[3-chloro-2-(5-methyl-[1,2,4]oxadiazol-3-yl)-indol-1-yl]-benzylcarbamoyl}-cyclopropyl)-nicotinamide] | < 20 | < 20 |
| Cc1ccc(C(=O)NC2(C(=O)NCc3ccc(-n4c(-c5noc(C)n5)c(Cl)c5ccccc54)cc3)CC2)cn1 [Example 154, N-(1-{4-[3-Chloro-2-(5-methyl-[1,2,4]oxadiazol-3-yl)-indol-1-yl]-benzylcarbamoyl}-cyclopropyl)-6-methyl-nicotinamide] | < 20 | < 20 |
| Cc1nc(-c2c(Cl)c3ccccc3n2-c2ccc(CNC(=O)C3(NC(=O)c4cccnc4C)CC3)cc2)no1 [Example 155, N-(1-{4-[3-Chloro-2-(5-methyl-[1,2,4]oxadiazol-3-yl)-indol-1-yl]-benzylcarbamoyl}-cyclopropyl)-2-methyl-nicotinamide] | 20 to 100 | 20 to 100 |

From US20130217702A1 (Richter Gedeon Nyrt., priority 2010, published 2013)
